This is an account of results in patent US11273152B2, “TRPV2 antagonists” (Instituto de Medicina Molecular João Lobo Antunes, priority 2017, dated 2022).

The target in one series is T1, TRPV2 (Homo sapiens, UniProt Q9Y5S1).
T1 sequence (Q9Y5S1 1-764): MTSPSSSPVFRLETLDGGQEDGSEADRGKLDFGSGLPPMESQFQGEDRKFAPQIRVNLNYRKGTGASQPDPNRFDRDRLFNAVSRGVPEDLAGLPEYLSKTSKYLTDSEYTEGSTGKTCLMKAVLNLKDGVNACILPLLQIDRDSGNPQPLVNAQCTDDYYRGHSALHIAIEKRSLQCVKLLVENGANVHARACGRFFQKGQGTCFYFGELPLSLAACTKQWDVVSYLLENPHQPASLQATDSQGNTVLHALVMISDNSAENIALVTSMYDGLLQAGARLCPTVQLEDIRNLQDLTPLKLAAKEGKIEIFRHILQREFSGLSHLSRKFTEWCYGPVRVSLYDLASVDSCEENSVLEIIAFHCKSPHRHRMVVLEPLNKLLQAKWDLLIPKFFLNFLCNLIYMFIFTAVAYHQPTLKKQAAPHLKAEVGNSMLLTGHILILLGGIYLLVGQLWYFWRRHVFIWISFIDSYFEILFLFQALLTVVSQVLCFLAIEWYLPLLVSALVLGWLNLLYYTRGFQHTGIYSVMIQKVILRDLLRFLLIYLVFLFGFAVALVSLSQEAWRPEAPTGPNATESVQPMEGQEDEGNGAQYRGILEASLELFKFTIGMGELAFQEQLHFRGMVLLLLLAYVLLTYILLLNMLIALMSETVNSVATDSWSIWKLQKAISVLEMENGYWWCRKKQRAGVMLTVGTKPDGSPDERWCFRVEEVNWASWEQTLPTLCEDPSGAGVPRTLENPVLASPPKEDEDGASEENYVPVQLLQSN
The series can be described thus: Fluorescence cell-based assay, TRPV2 (cannabidiol-evoked calcium influx). The following applies: TRPV2. How it is done: (§1) The assays were performed at SB Discovery (Glasgow, UK) on a fee-for-service basis. Human TRP cells were trypsinised, counted and seeded in black, clear-bottomed 96 well plates at a density of 50,000 cells per well in 100 μL volume and incubated overnight. Next day, the cells were loaded with calcium 5 dye or membrane potential dye. TRPV1-5, TRPA1, TRPM2, TRPM3, and TRPM8 were tested using the calcium 5 dye. TRPC1, TRPC3-7, and TRPM4-5 were tested using the membrane potential dye. Both dye solutions were made up in HEPES buffered Hank's balanced salt solution (HBSS). Dye solution (90 μL) was added to the wells and incubated at 37° C. for 1 hour. Test compounds and standard inhibitors (10 μL) were then added to the wells and incubated at room temperature for 10 minutes. The plates were then placed in the flexstation and fluorescence monitored every 1.52 seconds. After 20 seconds agonist was added and the fluorescence monitored for 2 minutes at 485 nm/525 nm and 530 nm/565 nm, Ex/Em, for the calcium 5 dye and the membrane potential dye respectively. Controls-TRPV1: capsazepine; TRPV2: tranilast; TRPV3: ruthenium red; TRPV4: ruthenium red; TRPV5: Gd^3+; TRPA1, ruthenium red; TRPC1: Gd^3+; TRPC3: Pyr3; TRPC4: ML 204; TRPC5: ML 204; TRPC6: ML 204; TRPC7: SKF 96365; TRPM2: 2-APB; TRPM3: Mef acid; TRPM4: clotrimazole; TRPM5: TPPO; TRPM8: 2-APB. Control data was in all cases within historical range.

A further series deals with TRPV5 (Homo sapiens, UniProt Q9NQA5). As to the kind of experiment: Fluorescence cell-based assay, TRPV5. The conditions noted are these: calcium 5 dye, duplicate. How it is done: as §1, with “Control data was in all cases within historical range.” left out
Another series deals with TRPA1 (Homo sapiens, UniProt O75762). As to the kind of experiment: Fluorescence cell-based assay, TRPA1. The following applies: calcium 5 dye, spread in log units, duplicate. How it is done:
as §1, with “Control data was in all cases within historical range.” left out

In a further series the target is TRPC1 (Homo sapiens, UniProt P48995). As to the kind of experiment: Fluorescence cell-based assay, TRPC1. The following applies: membrane potential dye, duplicate. How it is done: as §1, with “Control data was in all cases within historical range.” left out
The next series deals with TRPC7 (Homo sapiens, UniProt Q9HCX4). The series can be described thus: Fluorescence cell-based assay, TRPC7. The conditions noted are these: membrane potential dye, spread in log units, duplicate. How it is done: as §1, with “Control data was in all cases within historical range.” left out
In series [1] the target is T2, human TRPV2-RFP fusion protein (Homo sapiens, UniProt Q9Y5S1).
T2 construct: Itaru Kojima, Gunma University; host or cells: HEK293, transient
The series can be described thus: Intracellular calcium imaging in HEK293 transfected with TRPV2-RFP. It counts as cell-based. The conditions noted are these: CBD 4 μM; 1 at 5 μM; 300 s post stimulation. How it is done:
Cells (ATCC) were grown to 50% confluency in DMEM (Gibco) supplemented with 10% FBS (Gibco), GlutaMax (Gibco), MEM and NEAA (Gibco), 4.5 g/L glucose and 0.11 g/L sodium pyruvate. Cells were seeded in μ-ibidi 8 well plates and transfected with TRPV2-RFP^34 (kindly gifted by Prof. Itaru Kojimu Gunma University, Japan). After 48 h of incubation, cells were subjected to calcium imaging. Intracellular calcium measurements were performed with Fura-2 AM (Life Technologies) and modified from previously described studies.^12 In short, 1 hour before the measurement, cells were loaded with 5 μM Fura-2-AM for 45 minutes. Cell medium was replaced by Tyrod's solution (119 mM NaCl, 5 mM KCl, 2 mM CaCl2, 2 mM MgCl2, 6 g/L glucose, 25 mM HEPES pH 7.4). Simultaneously, the respective treatment was added to the cells (final concentration of 1% DMSO (control), 5 μM piperlongumine and 10 μM tranilast) and cells were allowed to re-adjustment for 15 minutes. Fura-2 AM emissions from 340 nm and 380 nm excitation were recorded for 1 minute before TRPV2 was activated by addition of 4 μM or 20 μM cannabidiol (CBD). Image analysis was done using the MetaFluor Analyst software. The statistical analysis was performed with astatsa.com. After calcium imaging acquisition, the cells were immediately fixed with 4% paraformaldehyde for 15 min. […]
In general terms: Calcium assays in cells follow changes in intracellular calcium, usually with a dye or a luminescent sensor.

The subject of a further series is rabbit TRPV2 orthologue. As to the kind of experiment: Isothermal titration calorimetry, rabbit TRPV2. The following applies: rabbit TRPV2 constructs; 100 μM. It counts as binding.
For the next series, the system named is PC3 cell line. As to the kind of experiment: Cell viability, PC3. The class given is cell-based. The following applies: 5 and 10 μM, 24 hours. How it is done:
(§2) 5,000 cells/well were seeded in 96 well plates with DMEM containing 2% FBS. The next day piperlongumine was added at various concentrations. […] At 24, 48 and 72 hours the media was removed and replaced with CellTiter-Blue (Promega, 1:20 in media). The plate was incubated for 90 minutes before measuring fluorescence intensity.

The next series deals with LNCaP cell line. The series can be described thus: Cell viability, LNCaP. The class given is cell-based. The following applies: 5 and 10 μM, 24 hours. How it is done:
as §2

The test system of a further series is HepG2 cells. As to the kind of experiment: Wound-healing scratch assay, HepG2. The class given is cell-based. The following applies: 24-hour.
In the next series the test system is Huh-7. The series can be described thus: Wound-healing scratch assay, Huh-7. The class given is cell-based.

“Also recorded” adds a separate entry of the source.

Chain of TRPC1 (P48995 whole entry): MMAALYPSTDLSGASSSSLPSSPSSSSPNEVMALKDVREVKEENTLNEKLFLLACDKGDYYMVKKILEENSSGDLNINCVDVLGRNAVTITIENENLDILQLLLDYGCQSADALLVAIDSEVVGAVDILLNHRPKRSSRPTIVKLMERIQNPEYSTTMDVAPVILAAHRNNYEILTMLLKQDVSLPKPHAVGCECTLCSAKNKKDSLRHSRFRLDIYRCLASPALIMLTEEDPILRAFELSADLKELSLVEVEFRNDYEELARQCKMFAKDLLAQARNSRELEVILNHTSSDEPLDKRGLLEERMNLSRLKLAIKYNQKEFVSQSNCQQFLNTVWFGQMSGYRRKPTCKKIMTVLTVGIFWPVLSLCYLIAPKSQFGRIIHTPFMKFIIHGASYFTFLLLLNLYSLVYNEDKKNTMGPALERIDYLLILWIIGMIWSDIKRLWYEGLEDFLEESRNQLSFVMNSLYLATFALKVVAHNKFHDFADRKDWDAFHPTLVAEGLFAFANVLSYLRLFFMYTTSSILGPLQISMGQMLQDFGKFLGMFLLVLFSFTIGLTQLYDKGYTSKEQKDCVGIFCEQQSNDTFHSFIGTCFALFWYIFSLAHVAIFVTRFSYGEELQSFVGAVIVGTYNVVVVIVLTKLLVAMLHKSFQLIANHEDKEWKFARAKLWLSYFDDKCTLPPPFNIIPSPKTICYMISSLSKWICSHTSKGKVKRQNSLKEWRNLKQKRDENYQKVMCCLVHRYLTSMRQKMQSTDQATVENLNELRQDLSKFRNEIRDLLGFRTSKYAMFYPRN
Chain of TRPA1 (O75762 whole entry): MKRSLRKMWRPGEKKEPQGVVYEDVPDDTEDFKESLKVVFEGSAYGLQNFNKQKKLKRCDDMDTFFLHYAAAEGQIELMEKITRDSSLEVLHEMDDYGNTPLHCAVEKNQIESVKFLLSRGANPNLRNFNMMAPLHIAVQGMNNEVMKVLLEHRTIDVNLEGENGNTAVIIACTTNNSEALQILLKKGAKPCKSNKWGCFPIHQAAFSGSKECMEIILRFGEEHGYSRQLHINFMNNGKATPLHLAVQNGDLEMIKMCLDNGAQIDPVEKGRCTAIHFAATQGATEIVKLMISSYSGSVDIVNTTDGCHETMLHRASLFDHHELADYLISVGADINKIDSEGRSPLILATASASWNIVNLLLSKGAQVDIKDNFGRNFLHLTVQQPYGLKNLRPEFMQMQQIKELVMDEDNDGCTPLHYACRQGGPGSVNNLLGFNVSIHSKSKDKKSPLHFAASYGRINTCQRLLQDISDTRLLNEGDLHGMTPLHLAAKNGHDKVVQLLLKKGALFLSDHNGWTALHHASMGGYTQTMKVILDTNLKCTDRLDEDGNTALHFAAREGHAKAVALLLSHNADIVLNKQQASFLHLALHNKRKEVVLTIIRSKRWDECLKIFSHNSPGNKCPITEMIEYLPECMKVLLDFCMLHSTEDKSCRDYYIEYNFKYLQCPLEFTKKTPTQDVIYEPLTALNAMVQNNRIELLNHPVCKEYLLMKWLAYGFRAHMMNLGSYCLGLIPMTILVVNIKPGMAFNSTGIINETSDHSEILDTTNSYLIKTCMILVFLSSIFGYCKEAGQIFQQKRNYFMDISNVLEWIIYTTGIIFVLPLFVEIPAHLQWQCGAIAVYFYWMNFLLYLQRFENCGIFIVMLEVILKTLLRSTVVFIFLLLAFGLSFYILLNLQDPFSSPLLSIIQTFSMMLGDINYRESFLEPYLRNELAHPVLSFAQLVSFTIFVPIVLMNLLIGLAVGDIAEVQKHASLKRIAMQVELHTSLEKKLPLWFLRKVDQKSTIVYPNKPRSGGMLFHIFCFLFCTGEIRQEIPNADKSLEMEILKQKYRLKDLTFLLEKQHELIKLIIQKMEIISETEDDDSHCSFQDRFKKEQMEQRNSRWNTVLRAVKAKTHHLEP
Chain of TRPV5 (Q9NQA5 whole entry): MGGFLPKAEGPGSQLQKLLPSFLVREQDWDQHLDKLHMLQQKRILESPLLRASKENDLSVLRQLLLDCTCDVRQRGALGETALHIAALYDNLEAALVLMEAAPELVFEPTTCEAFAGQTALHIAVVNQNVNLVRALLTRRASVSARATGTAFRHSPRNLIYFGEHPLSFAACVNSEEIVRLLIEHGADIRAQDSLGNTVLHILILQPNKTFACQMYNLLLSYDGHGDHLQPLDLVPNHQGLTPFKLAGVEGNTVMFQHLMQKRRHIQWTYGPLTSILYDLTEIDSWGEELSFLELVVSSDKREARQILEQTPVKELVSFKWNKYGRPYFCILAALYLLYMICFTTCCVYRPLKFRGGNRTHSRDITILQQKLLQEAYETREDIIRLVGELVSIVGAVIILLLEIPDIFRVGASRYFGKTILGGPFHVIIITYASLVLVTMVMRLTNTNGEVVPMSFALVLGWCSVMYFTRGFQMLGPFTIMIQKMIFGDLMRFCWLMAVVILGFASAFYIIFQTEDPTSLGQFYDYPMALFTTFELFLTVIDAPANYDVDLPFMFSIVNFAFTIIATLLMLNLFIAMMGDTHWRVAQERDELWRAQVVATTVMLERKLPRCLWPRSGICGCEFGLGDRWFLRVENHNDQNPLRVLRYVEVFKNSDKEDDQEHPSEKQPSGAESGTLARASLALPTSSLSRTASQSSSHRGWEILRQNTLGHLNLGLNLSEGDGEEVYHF
Chain of TRPC7 (Q9HCX4 whole entry, the tested form may be a part): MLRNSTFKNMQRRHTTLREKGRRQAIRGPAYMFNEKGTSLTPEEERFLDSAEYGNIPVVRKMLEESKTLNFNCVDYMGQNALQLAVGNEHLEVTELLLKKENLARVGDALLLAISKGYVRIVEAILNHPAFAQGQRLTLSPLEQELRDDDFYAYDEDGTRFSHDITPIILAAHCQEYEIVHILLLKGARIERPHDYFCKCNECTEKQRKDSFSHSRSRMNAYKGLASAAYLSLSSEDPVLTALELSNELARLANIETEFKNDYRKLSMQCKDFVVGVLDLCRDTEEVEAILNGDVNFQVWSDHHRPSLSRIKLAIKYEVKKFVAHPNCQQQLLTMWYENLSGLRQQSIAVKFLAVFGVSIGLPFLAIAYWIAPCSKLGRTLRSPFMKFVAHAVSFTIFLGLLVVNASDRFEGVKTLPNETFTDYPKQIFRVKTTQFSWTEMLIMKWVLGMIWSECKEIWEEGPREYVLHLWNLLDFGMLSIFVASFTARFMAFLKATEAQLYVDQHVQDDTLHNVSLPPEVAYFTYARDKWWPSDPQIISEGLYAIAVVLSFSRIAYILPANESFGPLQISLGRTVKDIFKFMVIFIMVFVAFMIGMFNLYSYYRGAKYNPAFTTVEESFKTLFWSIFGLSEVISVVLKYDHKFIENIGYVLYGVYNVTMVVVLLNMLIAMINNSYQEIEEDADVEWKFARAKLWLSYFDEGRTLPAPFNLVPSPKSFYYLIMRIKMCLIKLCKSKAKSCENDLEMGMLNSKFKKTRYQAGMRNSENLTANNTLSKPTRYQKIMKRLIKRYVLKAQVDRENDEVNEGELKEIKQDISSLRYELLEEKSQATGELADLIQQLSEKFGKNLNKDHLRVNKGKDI

For the compound `COc1cc(/C=C/C(=O)N2CCC=CC2=O)cc(OC)c1OC` [Compound 1, piperlongumine], the “Ligand Efficiency” value at TRPV2 turned out to be 0.32. For the same compound, the IC50 at TRPV2 (calcium 5 dye, spread in log units, duplicate, read-out: IC50/μM ± SD) is 4.6 µM; on TRPV5, greater than 100 µM; at TRPA1 it was 39 ± 0.15 µM; against TRPC1, greater than 100 µM; at TRPC7 it was 64 ± 0.06 µM. The “Inhibition of CBD evoked calcium influx in transfected HEK293 cells” value in series [1] is “significant difference between control and 1 (p<0.001)”. The “Binding by isothermal titration calorimetry” value with rabbit TRPV2 orthologue is listed as “did not bind”. Further, the Cell viability entry in the series with PC3 cell line and in the series with LNCaP cell line was “cell viability was compromised” each time. Besides, the “Cell death during wound-healing assay” value with HepG2 cells (5 μM) is recorded as “did not induce significant cell death”. Moreover, the “Cell migration, wound healing” value in the series with HepG2 cells (1 at 5 μM) is reported as “significantly reduced migration; also recorded: inhibits cancer cell migration in a Ca^2+-dependent manner”; in the series with Huh-7, “reproducible”.
